From patent publication US7897175B2, “Dosage forms comprising a CETP inhibitors and an HMG-CoA reductase inhibitor” (Bend Research, Inc., priority 2002, dated 2011)

What was measured:
[1] = In vitro dissolution test using a microcentrifuge method (PBS); assay type: physicochemical; details: for AUC90 (area under the aqueous concentration versus time curve after 90 minutes) / C1200 (concentration at 1200 minutes) / MDC90 (maximum concentration of torcetrapib in solution during the first 90 minutes): receptor solution PBS; for Torcetrapib Concentration / AUC: PBS pH 6.5, 37° C.; for Torcetrapib Concentration: 1000 μg/mL if all drug dissolved
Method: The spray-dried solid amorphous dispersion was evaluated in an in vitro dissolution test using a microcentrifuge method. In this test, 7.2 mg of the spray-dried solid amorphous dispersion was placed into a microcentrifuge tube. The tube was placed in a 37° C. sonicating bath, and 1.8 mL phosphate buffered saline (PBS) at pH 6.5 and 290 mOsm/kg was added, resulting in a torcetrapib concentration of 1000 μg/mL if all of the drug had dissolved. The sample was quickly mixed using a vortex mixer for about 60 seconds. The sample was centrifuged at 13,000 G at 37° C. for 1 minute. The resulting supernatant solution was then sampled and diluted 1:6 (by volume) with methanol and then analyzed by high-performance liquid chromatography (HPLC). The contents of the tube was mixed on the vortex mixer and allowed to stand undisturbed at 37° C. until the next sample was taken. Samples were collected at 4, 10, 20, 40, 90, and 1200 minutes. The concentrations of drug obtained in these samples are shown in Table 1, which represent the average of duplicate tests.
As a control, an in vitro dissolution test was performed using the procedures described above except that 1.8 mg of crystalline drug was used.
The spray-dried solid amorphous dispersion was evaluated in an in vitro dissolution test using a microcentrifuge method. In this test, 4.5 mg of the spray -dried solid amorphous dispersion was placed into a microcentrifuge tube. The tube was placed in a 37° C. sonicating bath, and 1.8 mL phosphate buffered saline (PBS) at ph 6.5 and 290 mOsm/kg was added, resulting in a torcetrapib concentration of 1000 μg/mL if all of the drug dissolved. The sample was quickly mixed using a vortex mixer for about 60 seconds. The sample was centrifuged at 13,000 G at 37° C. for 1 minute. The resilting superatant solution was then sampled and diluted 1:6 (by volume) with methanol and then analyzed by high-performance liquid chromatography (HPLC). The contents of the tube was mixed on the vortex mixer and allowed to stand undisturbed at 37° C. until the next sample was taken. Samples were collected at 4, 10, 20, 40, 90, and 1200 minutes. The concentrations of drug obtained in these samples are shown in Table 9, which represent the average of duplicate tests. The results using crystalline drug are included in Table 9 for […]

[2] = Aqueous solubility of torcetrapib; assay type: physicochemical; details: aqueous solution (not specified further), water, about 22° C.
Method: The CETP inhibitor may be any compound capable of inhibiting the cholesteryl ester transfer protein. Solid amorphous dispersions are particularly useful for CETP inhibitors that have sufficiently low aqueous solubility, low bioavailability or slow rate of absorption such that it is desirable to increase their concentration in an aqueous environment of use. […] Many CETP inhibitors have even lower solubilities (some even less than 0.1 μg/mL), and require dramatic concentration enhancement to be sufficiently bioavailable upon oral dosing for effective plasma concentrations to be reached at practical doses.
CETP inhibitors, in particular torcetrapib, and methods for preparing such compounds are disclosed in detail in U.S. Pat. Nos. 6,197,786 and 6,313,142, in PCT Application Nos. WO 01/40190A1, WO 02/088085A2, and WO 02/088069A2, the disclosures of which are herein incorporated by reference. Torcetrapib has an unusually low solubility in aqueous environments such as the lumenal fluid of the human GI tract. The aqueous solubility of torceptrapib is less than about 0.04 μg/ml. Torcetrapib must be presented to the GI tract in a solubility-enhanced form in order to achieve a sufficient drug concentration in the GI tract in order to achieve sufficient absorption into the blood to elicit the desired therapeutic effect.

[3] = Example 1 test (dispersion 25 wt % torcetrapib)
[4] = Example 12 test (dispersion 40 wt % torcetrapib, HPMCAS-HG)
[5] = time 0 min, Example 1 test (dispersion 25 wt % torcetrapib, HPMCAS-MG)
[6] = time 0 min, Example 12 test (dispersion 40 wt % torcetrapib, HPMCAS-HG)
[7] = time 4 min, Example 1 test (dispersion 25 wt % torcetrapib, HPMCAS-MG)
[8] = time 4 min, Example 12 test (dispersion 40 wt % torcetrapib, HPMCAS-HG)
[9] = time 10 min, Example 1 test (dispersion 25 wt % torcetrapib, HPMCAS-MG)
[10] = time 10 min, Example 12 test (dispersion 40 wt % torcetrapib, HPMCAS-HG)
[11] = time 20 min, Example 1 test (dispersion 25 wt % torcetrapib, HPMCAS-MG)
[12] = time 20 min, Example 12 test (dispersion 40 wt % torcetrapib, HPMCAS-HG)
[13] = time 40 min, Example 1 test (dispersion 25 wt % torcetrapib, HPMCAS-MG)
[14] = time 40 min, Example 12 test (dispersion 40 wt % torcetrapib, HPMCAS-HG)
[15] = time 90 min, Example 1 test (dispersion 25 wt % torcetrapib, HPMCAS-MG)
[16] = time 90 min, Example 12 test (dispersion 40 wt % torcetrapib, HPMCAS-HG)
[17] = time 1200 min, Example 1 test (dispersion 25 wt % torcetrapib, HPMCAS-MG)
[18] = time 1200 min, Example 12 test (dispersion 40 wt % torcetrapib, HPMCAS-HG)

Structure (SMILES): CCOC(=O)N1c2ccc(C(F)(F)F)cc2[C@@H](N(Cc2cc(C(F)(F)F)cc(C(F)(F)F)c2)C(=O)OC)C[C@H]1CC [Crystalline Drug, [2R,4S]-4-[(3,5-bis-trifluoromethyl-benzyl)-methoxycarbonyl-amino]-2-ethyl-6-trifluoromethyl-3,4-dihydro-2H-quinoline-1-carboxylic acid ethyl ester]
- AUC90 (area under the aqueous concentration versus time curve after 90 minutes) [1, 3]: <88 min-μg/mL
- C1200 (concentration at 1200 minutes) [1, 3]: <1 µg/mL
- MDC90 (maximum concentration of torcetrapib in solution during the first 90 minutes) [1, 3]: <1 µg/mL
- AUC90 (area under the aqueous concentration versus time curve after 90 minutes) [1, 4]: <88 min-μg/mL
- C1200 (concentration at 1200 minutes) [1, 4]: <1 µg/mL
- MDC90 (maximum concentration of torcetrapib in solution during the first 90 minutes) [1, 4]: <1 µg/mL
- Torcetrapib Concentration [1, 5]: 0 µg/mL
- Torcetrapib Concentration [1, 6]: 0 µg/mL
- AUC [1, 5]: 0 min-μg/mL
- AUC [1, 6]: 0 min-μg/mL
- Torcetrapib Concentration [1, 7]: <1 µg/mL
- Torcetrapib Concentration [1, 8]: <1 µg/mL
- AUC [1, 7]: <2 min-μg/mL
- AUC [1, 8]: <2 min-μg/mL
- Torcetrapib Concentration [1, 9]: <1 µg/mL
- Torcetrapib Concentration [1, 10]: <1 µg/mL
- AUC [1, 9]: <8 min-μg/mL
- AUC [1, 10]: <8 min-μg/mL
- Torcetrapib Concentration [1, 11]: <1 µg/mL
- Torcetrapib Concentration [1, 12]: <1 µg/mL
- AUC [1, 11]: <18 min-μg/mL
- AUC [1, 12]: <18 min-μg/mL
- Torcetrapib Concentration [1, 13]: <1 µg/mL
- Torcetrapib Concentration [1, 14]: <1 µg/mL
- AUC [1, 13]: <38 min-μg/mL
- AUC [1, 14]: <38 min-μg/mL
- Torcetrapib Concentration [1, 15]: <1 µg/mL
- Torcetrapib Concentration [1, 16]: <1 µg/mL
- AUC [1, 15]: <88 min-μg/mL
- AUC [1, 16]: <88 min-μg/mL
- Torcetrapib Concentration [1, 17]: <1 µg/mL
- Torcetrapib Concentration [1, 18]: <1 µg/mL
- AUC [1, 17]: <1,200 min-μg/mL
- AUC [1, 18]: <1,200 min-μg/mL
- solubility [2]: < 0.04 µg/mL
